Patent US20240075002A1, “CREATINE COMPOSITION AND METHODS OF USING SAME” (NanoChem Solutions, Inc, priority 2022, published 2024)

Test: pH of the spray dried powder
Type: physicochemical
Protocol: In one exemplary embodiment, an aqueous solution of creatine sodium sulfate can be produced by dissolving about 72.96 grams of sodium hydrogen sulfate in about 811.86 grams of deionized water. The solution can be heated to about 145° F. and is maintained throughout the reaction. When the temperature of the sodium hydrogen sulfate solution reaches about 145° F., about 90.63 grams of creatine monohydrate can be added to the solution whereby the heat is maintained at about 145° F. and the mixture mixes with standard agitation for approximately 1 hour. After the hour, the solution is immediately piped to the spray dryer whereby it is spray dried into a powder with a total water of 3-7% by weight and with a water activity of less than 0.4. The pH of the spray dried powder is approximately 1.7. The mesh size of the spray-dried, stable, soluble sodium hydrogen sulfate powder is approximately 40-200 mesh, but can be adjusted depending on the requirements of the customer or desired end application.
In another exemplary embodiment, an aqueous solution of creatine potassium sulfate can be produced by dissolving about 109.53 grams of potassium hydrogen sulfate in about 806.68 grams of deionized water. The solution is can be heated to about 145° F. and is maintained throughout the reaction. […]

SMILES | pH of the spray dried powder
CN(CC(=O)O)C(=N)N.O=S(=O)([O-])[O-].[Na+].[Na+] [creatine sodium sulfate] | approximately 1.7
CN(CC(=O)O)C(=N)N.O=S(=O)([O-])[O-].[K+].[K+] [creatine potassium sulfate] | approximately 1.7
